Data published in US20110151006A1, “STIMULI-RESPONSIVE HYDROGEL” (priority 2008, published 2011).

Experiments:
[1] = target: T1, GyrB (gyrase subunit B) (Escherichia coli, UniProt P0AES6); experiment: Ultrafiltration study of coumermycin-induced GyrB dimerization; format: biochemical, E. coli; settings: 50 kDa molecular weight cut-off filter; GyrB:coumermycin=2:1; GyrB without coumermycin gave 54%
T1 construct: GyrB migrates predominantly at its predicted size of 27 kDa; made in house; host or cells: E. coli BL21 STAR (DE3)

[2] = target: T1, GyrB (gyrase subunit B); experiment: Antibiotic-triggered GyrB dimerization, DMS crosslinking and SDS-PAGE; format: biochemical, E. coli; settings: GyrB:coumermycin=2:1, mol/mol; DMS crosslinking; denaturing PAGE; dimer at 54 kDa
Procedure: The gene for E. coli gyrase subunit B (gyrB) is tagged with the coding sequence for six histidine residues. The coding region is placed under the control of the phage T7-derived promoter and expressed in E. coli as a soluble cytoplasmatic protein. GyrB is purified via the hexahistidine tag using Ni^2+-based affinity chromatography. Coumermycin-induced dimerization of genetically engineered GyrB is evaluated by incubating the protein in the presence or absence of coumermycin (GyrB:coumermycin=2:1, mol/mol) with subsequent addition of the amine-specific bifunctional crosslinking agent dimethyl-suberimidate (DMS) and analysis of the complexes on denaturing polyacrylamide gel electrophoresis. […]
Concentration of GyrB is analyzed by the Bradford method (Biorad, Muünchen, Germany, cat. no. 500-0006) using BSA as standard. […] Antibiotic-triggered dimerization of GyrB is analyzed by incubating GyrB in the presence coumermycin A1 (GyrB:coumermycin=2:1, mol/mol; Sigma, St. Louis, Mo., cat. no. C9270) for 30 min at room temperature following covalent crosslinking of the dimers by addition of dimethyl suberimidate×2HCl (DMS, SigmaAldrich, St. Louis, Mo., cat. no. 179523) at a 10-fold molar excess with respect to GyrB for 60 min at room temperature. The dimers are analyzed on SDS-PAGE. […]

[3] = target: T2, hexahistidine-tagged GyrB (Escherichia coli, UniProt P0AES6); experiment: Antibiotic-dependent hydrogel formation (GyrB released into buffer); set-up: species or system E. coli; settings: GyrB:coumermycin=2:1 or ten-fold molar excess of novobiocin; mixed with poly(AAm-co-Ni2+-NTA-AAm); 12 hours in PBS
T2 construct: GyrB migrates predominantly at its predicted size of 27 kDa; made in house; host or cells: E. coli BL21 STAR (DE3)
Description: The protein is subsequently mixed with poly(AAm-co-Ni^2+-NTA-AAm) at a ratio of one GyrB per 11 Ni^2+ ions chelated in the polymer backbone.

coumermycin A1
GyrB protein in filtrate [1]: 2.8% | GyrB dimer formation [2]: substantial dimer formation | GyrB-polymer complexes released into the buffer / hydrogel formation [3]: significantly reduced
